Data reported in patent publication US7247627B2, “Salts and polymorphs of a pyrrole-substituted indolinone compound” (Pharmacia & Upjohn Company, priority 2003, dated 2007).
Structures can show the parent of a compound that is named as a salt.

How the values were obtained:
[1] = tested on: hepatic cytochrome P450; assay: Metabolism in preclinical species and in human hepatocytes and microsomes; format: in vitro ADME; details: preclinical species (in vivo and in vitro)
Description: The primary site of metabolism is the morpholinyl group. Three metabolites have been identified in vivo following single oral administration (100 mg/kg) to cynomolgus monkeys (FIG. 8). These 3 metabolites, which were detected at <16% relative abundance to parent in monkey plasma, were also the major products observed in human microsomes and hepatocytes. Relative abundance was determined from monkey plasma following a single dose of 5-[(Z)-(5-fluoro-2-oxo-1,2-dihydro-3H-indol-3-ylidene)methyl]-N-[(2S)-2-hydroxy-3-morpholin-4-ylpropyl]-2,4-dimethyl-1H-pyrrole-3-carboxamide (100 mg/kg) and based on (AUC0-12 metabolite/AUC0-12 parent)×100, estimated from the characteristic indole UV absorption at 440 nm. The N,O-dealkylation metabolite has been confirmed via nuclear magnetic resonance (NMR). […] The morpholinyl lactam metabolite is the product of oxygenation-dehydrogenation and has also been confirmed via NMR. The morpholinyl hemi-aminal metabolite is an unstable metabolite identified via an iminium-ion trapping experiment. Relative abundance was determined by UV response at 428 nm.

[2] = Solid-state properties of the free base form; format: physicochemical
[3] = tested on: solid and hematopoietic cancer xenograft models; details: diverse preclinical solid and hematopoietic cancer xenograft models; cited from earlier work
[4] = Crystal form stability by PXRD (Example 3); format: physicochemical; details: 40° C. and 75% relative humidity
Description: Crystal form stability was assessed for samples of 5-[(Z)-(5-fluoro-2-oxo-1,2-dihydro-3H-indol-3-ylidene)methyl]-N-[(2S)-2-hydroxy-3-morpholin-4-ylpropyl]-2,4-dimethyl-1 H-pyrrole-3-carboxamide maleate salt, polymorph Form 1, polymorph Form 2, and a mixture of polymorph Form 1 and Form 2. In each case, a sample of the substance was placed into a controlled temperature and humidity stability chamber at 40° C. and 75% relative humidity. Samples were taken several times during the duration of the test and analyzed for qualitative changes in the PXRD patterns.

[5] = Six-week stability study, HPLC chemical and enantiomeric stability, PXRD (Example 4); format: physicochemical; details: for Total Impurity (%): closed vial
Description: A six-week stability study was carried out on samples of 5-[(Z)-(5-fluoro-2-oxo-1,2-dihydro-3H-indol-3-ylidene)methyl]-N-[(2S)-2-hydroxy-3-morpholin-4-ylpropyl]-2,4-dimethyl-1H-pyrrole-3-carboxamide maleate salt, polymorph Form 1. The compound was exposed for 6 weeks, closed vial, at three stability test conditions: 5° C., 25° C./60% relative humidity and 40° C./75% relative humidity, and analyzed for chemical and enantiomeric stability as described in Example 2, except that the HPLC instrument was an Agilent 1100 series.
The percent recovery was calculated based on the average response factor obtained from a reference standard throughout the HPLC run, and considering the E isomer as the compound and not as an impurity. […] The isomerization is often an artifact of sample preparation and analysis. […] The values shown in the table are averages of several injections.

[6] = TGA of six-week stability samples; format: physicochemical
Description: TGA measurements were performed using a TA Instruments model 2950 Hi-Res analyzer with a Thermal Analyst 5000 controller. Samples were placed onto a tared platinum hanging pan and heated to at least 165° C. at a rate of 10° C./min. Dry nitrogen was used as a purge gas.
To determine the thermal stability and residual solvent content, the same samples were analyzed by DSC and TGA.

[7] = Hygroscopicity by dynamic moisture sorption gravimetry (DMSG); format: physicochemical; details: for Water Uptake at 80% RH (wt. %) / hysteresis of sorption profile / hygroscopicity: DMSG; for Water Uptake at 80% RH (wt. %): 25° C.
Description: In one embodiment, the invention provides a non-hygroscopic salt of 5-[(Z)-(5-fluoro-2-oxo-1,2-dihydro-3H-indol-3-ylidene)methyl]-N-[(2S)-2-hydroxy-3-morpholin-4-ylpropyl]-2,4-dimethyl-1H-pyrrole-3-carboxamide. Hygroscopicity is determined by dynamic moisture sorption gravimetry (DMSG) using a controlled atmosphere microbalance at a temperature of 25° C. Samples are analyzed over a relative humidity range of from 0 to 90% in 3% steps. Each step is brought to equilibrium before moving to the next step, with equilibrium assessed as a weight change of less than 0.002 mg (0.02%) for five consecutive points at 1 point per 120 seconds.
Several salts of 5-[(Z)-(5-fluoro-2-oxo-1,2-dihydro-3H-indol-3-ylidene)methyl]-N-[(2S)-2-hydroxy-3-morpholin-4-ylpropyl]-2,4-dimethyl-1H-pyrrole-3-carboxamide were produced and analyzed for hygroscopicity. Hygroscopicity was determined by dynamic moisture sorption gravimetry (DMSG) using a controlled atmosphere microbalance at a temperature of 25° C. Samples were analyzed over a relative humidity range of from 0 to 90% in 3% steps, in a humidity profile of […], where the initial value of 36% reflects the approximate initial equilibrated relative humidity (not specifically measured). Each step was brought to equilibrium before moving to the next step, with equilibrium assessed as a weight change of less than 0.001 mg (0.01%) or 0.002 mg (0.02%) for five consecutive points at 1 point per 120 seconds. The water uptake at 80% relative humidity (RH) was selected for comparison between the salts. The 80% RH values for each salt are shown in Table 5, and the right column of the table identifies the corresponding Figure showing the complete DMSG scan. A range of values given for the water uptake at 80% reflects hysteresis in the 0→90% and 90→0% scans.

[8] = 6-week sample stored at 25° C./60% RH
[9] = 6-week sample stored at 40° C./75% RH

Cc1[nH]c(/C=C2\C(=O)Nc3ccc(F)cc32)c(C)c1C(=O)NC[C@H](O)CN1CCOCC1 [5-[(Z)-(5-fluoro-2-oxo-1,2-dihydro-3H-indol-3-ylidene)methyl]-N-[(2S)-2-hydroxy-3-morpholin-4-ylpropyl]-2,4-dimethyl-1H-pyrrole-3-carboxamide]
metabolism pathway [1]: proceeds primarily through an oxidative pathway mediated by hepatic cytochrome P450
chemical and enantiomeric stability [2]: chemically and enantiomerically stable
hygroscopicity [2]: relatively non-hygroscopic
anti-tumor activity [3]: has anti-tumor activity

Cc1[nH]c(/C=C2\C(=O)Nc3ccc(F)cc32)c(C)c1C(=O)NC[C@H](O)CN1CCOCC1 [Form 1, 5-[(Z)-(5-fluoro-2-oxo-1,2-dihydro-3H-indol-3-ylidene)methyl]-N-[(2S)-2-hydroxy-3-morpholin-4-ylpropyl]-2,4-dimethyl-1H-pyrrole-3-carboxamide]
crystal form changes in the PXRD pattern ([4]; 163 days): no crystal form changes were observed
crystalline changes by PXRD compared to a control sample ([5]; 6-week samples maintained at 40° C./75% RH): no crystalline changes
chiral transformation ([5]; 6-week stability samples, any samples): no chiral transformation observed
Total Impurity (%) ([5]; 6 weeks, 5° C. ± 3° C.): 1.67%
Total Impurity (%) ([5]; 6 weeks, 25° C. ± 2° C., 60% RH): 1.85%
Total Impurity (%) ([5]; 6 weeks, 40° C. ± 2° C.C, 76% RH): 1.86%
assay of the 6-week stability samples ([5]; all three stability conditions): 97.1–98.5%
Enantiomeric stability, amount of R isomer ([5]; samples held at 80° C. for 2 weeks): no increase in the amount of R isomer observed
stability ([5]; under all stability conditions investigated, 6 weeks): stable
TGA Wt. Loss (%), 25° C.–125° C. ([6]; 6-week sample stored at 5° C.): 1.44%
TGA Wt. Loss (%), 25° C.–275° C. ([6]; 6-week sample stored at 5° C.): 23.15%
TGA Wt. Loss (%), 25° C.–125° C. [6, 8]: 1.36%
TGA Wt. Loss (%), 25° C.–275° C. [6, 8]: 24.36%
TGA Wt. Loss (%), 25° C.–125° C. [6, 9]: 1.66%
TGA Wt. Loss (%), 25° C.–275° C. [6, 9]: 20.61%
TGA significant weight loss at 207° C. ([6]; 6-week samples): 21-23%
TGA weight loss between 25–125° C. ([6]; 6-week samples): less than 2%

Cc1[nH]c(/C=C2\C(=O)Nc3ccc(F)cc32)c(C)c1C(=O)NC[C@H](O)CN1CCOCC1 [Form 2, 5-[(Z)-(5-fluoro-2-oxo-1,2-dihydro-3H-indol-3-ylidene)methyl]-N-[(2S)-2-hydroxy-3-morpholin-4-ylpropyl]-2,4-dimethyl-1H-pyrrole-3-carboxamide]
Water Uptake at 80% RH (wt. %) ([7]; 80% relative humidity, listed as Maleate): 0.8 wt. %
crystal form changes in the PXRD pattern ([4]; 134 days): no crystal form changes were observed

Cc1[nH]c(/C=C2\C(=O)Nc3ccc(F)cc32)c(C)c1C(=O)NC[C@H](O)CN1CCOCC1 [HCl, form 1, 5-[(Z)-(5-fluoro-2-oxo-1,2-dihydro-3H-indol-3-ylidene)methyl]-N-[(2S)-2-hydroxy-3-morpholin-4-ylpropyl]-2,4-dimethyl-1H-pyrrole-3-carboxamide]
Water Uptake at 80% RH (wt. %) ([7]; 80% relative humidity): 3–20 wt. %
hysteresis of sorption profile ([7]; listed as hydrochloride salt): significant hysteresis

Cc1[nH]c(/C=C2\C(=O)Nc3ccc(F)cc32)c(C)c1C(=O)NC[C@H](O)CN1CCOCC1 [HCl, form 2, 5-[(Z)-(5-fluoro-2-oxo-1,2-dihydro-3H-indol-3-ylidene)methyl]-N-[(2S)-2-hydroxy-3-morpholin-4-ylpropyl]-2,4-dimethyl-1H-pyrrole-3-carboxamide]
hygroscopicity [7]: relatively non-hygroscopic
hysteresis of sorption profile [7]: no significant hysteresis
Water Uptake at 80% RH (wt. %) ([7]; 80% relative humidity): 1.2 wt. %

Cc1[nH]c(/C=C2\C(=O)Nc3ccc(F)cc32)c(C)c1C(=O)NC[C@H](O)CN1CCOCC1 [L-malate, 5-[(Z)-(5-fluoro-2-oxo-1,2-dihydro-3H-indol-3-ylidene)methyl]-N-[(2S)-2-hydroxy-3-morpholin-4-ylpropyl]-2,4-dimethyl-1H-pyrrole-3-carboxamide]
Water Uptake at 80% RH (wt. %) ([7]; 80% relative humidity): 12–13 wt. %

Cc1[nH]c(/C=C2\C(=O)Nc3ccc(F)cc32)c(C)c1C(=O)NC[C@H](O)CN1CCOCC1 [L-tartrate, 5-[(Z)-(5-fluoro-2-oxo-1,2-dihydro-3H-indol-3-ylidene)methyl]-N-[(2S)-2-hydroxy-3-morpholin-4-ylpropyl]-2,4-dimethyl-1H-pyrrole-3-carboxamide]
Water Uptake at 80% RH (wt. %) ([7]; 80% relative humidity): 9 wt. %

Cc1[nH]c(/C=C2\C(=O)Nc3ccc(F)cc32)c(C)c1C(=O)NC[C@H](O)CN1CCOCC1 [Malonate, 5-[(Z)-(5-fluoro-2-oxo-1,2-dihydro-3H-indol-3-ylidene)methyl]-N-[(2S)-2-hydroxy-3-morpholin-4-ylpropyl]-2,4-dimethyl-1H-pyrrole-3-carboxamide]
Water Uptake at 80% RH (wt. %) ([7]; 80% relative humidity): 12 wt. %

Cc1[nH]c(/C=C2\C(=O)Nc3ccc(F)cc32)c(C)c1C(=O)NC[C@H](O)CN1CCOCC1 [Mandalate, 5-[(Z)-(5-fluoro-2-oxo-1,2-dihydro-3H-indol-3-ylidene)methyl]-N-[(2S)-2-hydroxy-3-morpholin-4-ylpropyl]-2,4-dimethyl-1H-pyrrole-3-carboxamide]
Water Uptake at 80% RH (wt. %) ([7]; 80% relative humidity): 5–6 wt. %

Cc1[nH]c(/C=C2\C(=O)Nc3ccc(F)cc32)c(C)c1C(=O)NC[C@H](O)CN1CCOCC1 [Tosylate, 5-[(Z)-(5-fluoro-2-oxo-1,2-dihydro-3H-indol-3-ylidene)methyl]-N-[(2S)-2-hydroxy-3-morpholin-4-ylpropyl]-2,4-dimethyl-1H-pyrrole-3-carboxamide]
Water Uptake at 80% RH (wt. %) ([7]; 80% relative humidity): 7 wt. %
Uptake of water ([7]; at about 65% relative humidity): about 2.5%

Cc1[nH]c(/C=C2\C(=O)Nc3ccc(F)cc32)c(C)c1C(=O)NC[C@H](O)CN1CCOCC1 [initial maleate salt, 5-[(Z)-(5-fluoro-2-oxo-1,2-dihydro-3H-indol-3-ylidene)methyl]-N-[(2S)-2-hydroxy-3-morpholin-4-ylpropyl]-2,4-dimethyl-1H-pyrrole-3-carboxamide]
moisture uptake ([7]; 80% relative humidity): about 9%
hygroscopicity [7]: hygroscopic

Cc1[nH]c(/C=C2\C(=O)Nc3ccc(F)cc32)c(C)c1C(=O)NC[C@H](O)CN1CCOCC1 [mixed Form 1/Form 2, 5-[(Z)-(5-fluoro-2-oxo-1,2-dihydro-3H-indol-3-ylidene)methyl]-N-[(2S)-2-hydroxy-3-morpholin-4-ylpropyl]-2,4-dimethyl-1H-pyrrole-3-carboxamide]
crystal form changes in the PXRD pattern ([4]; 6 weeks): no crystal form changes were observed
